# Columns and labels:
# Type in all cases: cell-based
# DU-145 = assay: Cytotoxic activity screening, DU-145 cells
# [1] = tested on: HT-29 (monolayer culture of a human colon carcinoma); assay: Cytotoxic activity screening, HT-29 cells; conditions: three days of incubation, Crystal Violet, approximate IC50
# Procedure: (§1) Cell Cultures. Cells were maintained in logarithmic phase of growth in Eagle's Minimum Essential Medium, with Earle's Balanced Salts, with 2.0 mM L-glutamine, with non-essential amino acids, without sodium bicarbonate (EMEM/neaa); supplemented with 10% Fetal Calf Serum (FCS), 10^−2 M sodium bicarbonate and 0.1 g/l penicillin-G+streptomycin sulfate.
# (§2) A simple screening procedure has been carried out to determine and compare the antitumour activity of these compounds, using an adapted form of the method described by Bergeron et al (1984). The tumour cell line employed have been P-388 (suspension culture of a lymphoid neoplasm from DBA/2 mouse), A-549 (monolayer culture of a human lung carcinoma), HT-29 (monolayer culture of a human colon carcinoma) and MEL-28 (monolayer culture of a human melanoma).
# (§3) A-549, HT-29 and MEL-28 were seeded into 16 mm wells at 2×10^4 cells per well in 1 ml aliquots of MEM 10FCS containing the indicated concentration of drug. A separate set of cultures without drug was seeded as control growth to ensure that cells remained in exponential phase of growth. All determinations were carried out in duplicate. After three days of incubation at 37° C., 10% CO2 in a 98% humid atmosphere, the wells were stained with 0.1% Crystal Violet. An approximately IC50 was determined by comparing the growth in wells with drug to the growth in wells control.
# [2] = tested on: P-388 (suspension culture of a lymphoid neoplasm from DBA/2 mouse); assay: Cytotoxic activity screening, P-388 cells; conditions: three days of incubation, approximate IC50
# Procedure: as §1, §2
# P-388 cell were seeded into 16 mm wells at 1×10^4 cells per well in 1 ml aliquots of MEM 5FCS containing the indicated concentration of drug. A separate set of cultures without drug was seeded as control growth to ensure that cells remained in exponential phase of growth. All determinations were carried out in duplicate.
# [3] = tested on: A-549 (monolayer culture of a human lung carcinoma); assay: Cytotoxic activity screening, A-549 cells; conditions: three days of incubation, Crystal Violet, approximate IC50
# Procedure: as §1, §2, §3
# [4] = tested on: MEL-28 (monolayer culture of a human melanoma); assay: Cytotoxic activity screening, MEL-28 cells; conditions: SK-MEL-28, 72 h, three days of incubation, Crystal Violet, approximate IC50
# Procedure: as §1, §2, §3
# CV-1 = assay: Cytotoxic activity screening, CV-1 cells; conditions: Cercopithecidae
# [5] = Homo sapiens, DU-145, DU-145 cells
SMILES,IC50 (DU-145; [5]),"IC50 ([1]; Homo sapiens, HT-29, 72 h)","IC50 ([2]; Mus musculus, P388, 72 h)","IC50 ([3]; Homo sapiens, A549, 72 h)",IC50 [4],IC50 (CV-1),IC50 (DU-145; DU-145 cells),IC50 [1],IC50 [2],IC50 [3]
COc1c(C)cc2c(c1O)[C@@H]1C3Cc4c(OC(C)=O)c(C)c5c(c4[C@H](CNC(=O)[C@@H](C)NC(=O)CC(C)C)N3[C@@H](C#N)[C@H](C2)N1C)OCO5 (some centres unmarked),0.0001 µM,0.0001 µM,0.0001 µM,0.0001 µM,0.0001 µM,,,,,
COc1c(C)cc2c(c1O)[C@@H]1C3Cc4c(OC(C)=O)c(C)c5c(c4[C@H](CNC(=O)[C@@H](C)NC(=O)/C=C/c4cccc(C(F)(F)F)c4)N3[C@@H](C#N)[C@H](C2)N1C)OCO5 (some centres unmarked),0.001 µM,0.001 µM,0.001 µM,0.001 µM,0.001 µM,,,,,
COc1c(C)cc2c(c1O)[C@@H]1C3Cc4c(OC(C)=O)c(C)c5c(c4[C@H](CNC(=O)[C@H](C)NC(=O)C(F)(F)F)N3[C@@H](C#N)[C@H](C2)N1C)OCO5 (some centres unmarked),0.0001 µM,0.0001 µM,0.0001 µM,0.0001 µM,0.0001 µM,,,,,
C=CCOc1c(C)c2c(c3c1CC1[C@H]4c5c(cc(C)c(OC)c5O)C[C@@H]([C@H](C#N)N1[C@H]3CNC(=O)[C@H](C)NC(=O)C(F)(F)F)N4C)OCO2 (some centres unmarked),0.001 µM,0.001 µM,0.001 µM,0.001 µM,0.001 µM,,,,,
COc1c(C)cc2c(c1O)[C@@H]1C3Cc4c(O)c(C)c5c(c4[C@H](CNC(=O)[C@H](C)NC(=O)C(F)(F)F)N3[C@@H](C#N)[C@H](C2)N1C)OCO5 (some centres unmarked),0.01 µM,0.01 µM,0.01 µM,0.01 µM,0.01 µM,,,,,
COc1c(C)cc2c(c1O)[C@@H]1C3Cc4c(O)c(C)c5c(c4[C@H](CNC(=O)[C@H](C)N)N3[C@@H](C#N)[C@H](C2)N1C)OCO5 (some centres unmarked),0.9 µM,0.18 µM,0.18 µM,0.9 µM,0.8 µM,,,,,
COc1c(C)cc2c(c1O)[C@@H]1C3Cc4c(O)c(C)c5c(c4[C@H](CNC(=O)[C@H](C)NC(=S)Nc4ccccc4)N3[C@@H](C#N)[C@H](C2)N1C)OCO5 (some centres unmarked),0.14 µM,0.14 µM,0.14 µM,0.14 µM,0.14 µM,,,,,
COc1c(C)cc2c(c1O)[C@@H]1C3Cc4c(OC(C)=O)c(C)c5c(c4[C@H](CNC(=O)[C@H](C)NC(=O)/C=C/c4ccccc4)N3[C@@H](C#N)[C@H](C2)N1C)OCO5 (some centres unmarked),0.0005 µM,0.0005 µM,0.001 µM,0.001 µM,0.001 µM,,,,,
CCCC(=O)N[C@H](C)C(=O)NC[C@H]1c2c(c(OC(C)=O)c(C)c3c2OCO3)CC2[C@H]3c4c(cc(C)c(OC)c4O)C[C@@H]([C@H](C#N)N21)N3C (some centres unmarked),0.001 µM,0.0005 µM,0.001 µM,0.001 µM,0.0005 µM,,,,,
C/C=C(\OC(C)=O)C1=C(C2=COCO2)[C@H](CNC(=O)/C=C/c2ccccc2)N2C(C1)[C@H]1c3c(cc(C)c(OC)c3O)C[C@@H]([C@@H]2C#N)N1C (some centres unmarked),0.0001 µM,0.0001 µM,0.0001 µM,0.0001 µM,0.0001 µM,,,,,
COc1c(C)cc2c(c1O)[C@@H]1C3Cc4c(OC(C)=O)c(C)c5c(c4[C@H](CNC(=O)[C@H](C)NC(=O)CCCl)N3[C@@H](C#N)[C@H](C2)N1C)OCO5 (some centres unmarked),0.001 µM,0.001 µM,0.001 µM,0.001 µM,0.001 µM,,,,,
CCCC(=O)NC[C@H]1c2c(c(OC(C)=O)c(C)c3c2OCO3)CC2[C@H]3c4c(cc(C)c(OC)c4O)C[C@@H]([C@H](C#N)N21)N3C (some centres unmarked),0.0005 µM,0.0001 µM,0.0001 µM,0.0005 µM,0.0001 µM,,,,,
COc1c(C)cc2c(c1O)[C@@H]1C3Cc4c(OC(C)=O)c(C)c5c(c4[C@H](CNC(=O)/C=C/c4cccc(C(F)(F)F)c4)N3[C@@H](O)[C@H](C2)N1C)OCO5 (some centres unmarked),0.0001 µM,0.0001 µM,0.0001 µM,0.0001 µM,0.0001 µM,,,,,
COc1c(C)cc2c(c1O)[C@@H]1C3Cc4c(OC(C)=O)c(C)c5c(c4[C@H](CNC(=O)[C@H](C)NC(=O)C(F)(F)F)N3[C@@H](O)[C@H](C2)N1C)OCO5 (some centres unmarked),0.0001 µM,0.0001 µM,0.0001 µM,0.0001 µM,0.0001 µM,,,,,
C=CCOc1c(C)c2c(c3c1CC1[C@H]4c5c(cc(C)c(OC)c5OCOC)C[C@@H]([C@H](C#N)N1[C@H]3CN)N4C)OCO2 (some centres unmarked) [drawing 80],,,0.18 µM,,,1.8 µM,,,,
C=CCOc1c(C)c2c(c3c1CC1[C@H]4c5c(cc(C)c(OC)c5OCOC)C[C@@H]([C@H](C#N)N1[C@H]3CN)N4C)OCO2 (some centres unmarked) [drawing 81],,,,,0.2 µM,,0.2 µM,0.2 µM,0.2 µM,0.2 µM
